Converted amounts (≈) assume the structure as drawn.
Assays:
Format in all cases: functional
[1] = system: Pseudomonas aeruginosa; experiment: Antibacterial activity against Pseudomonas aeruginosa PAO4290 harboring leu-10 argF10 aph-9004 FP(-)
[2] = system: Pseudomonas aeruginosa; experiment: Antibacterial activity against tatC deficient Pseudomonas aeruginosa TNP080 transformant harboring pPlcMexA carrying chimeric mexA gene with plcH signal sequence
[3] = system: Pseudomonas aeruginosa; experiment: Antibacterial activity against tatC deficient Pseudomonas aeruginosa TNP080
[4] = system: Pseudomonas aeruginosa; experiment: Antibacterial activity against mexA deficient Pseudomonas aeruginosa TNP070 transformant harboring pMEXA1 carrying wild type mexA gene
[5] = system: Pseudomonas aeruginosa; experiment: Antibacterial activity against tatC deficient Pseudomonas aeruginosa TNP080 transformant harboring pMEXA1 carrying wild type mexA gene
[6] = system: Pseudomonas aeruginosa; experiment: Antibacterial activity against mexA deficient Pseudomonas aeruginosa TNP070
[7] = system: Pseudomonas aeruginosa; experiment: Antibacterial activity against tatC deficient Pseudomonas aeruginosa TNP080 transformant harboring pTatPlcMexA carrying entire tatC gene and the chimeric mexA gene
[8] = system: Pseudomonas aeruginosa; experiment: Antibacterial activity against mexA deficient Pseudomonas aeruginosa TNP070 transformant harboring pPlcMexA carrying chimeric mexA gene with plcH signal sequence

Row | Structure (SMILES) | MIC [1] [µg/mL] | MIC [2] [µg/mL] | MIC [3] [µg/mL] | MIC [4] [µg/mL] | MIC [5] [µg/mL] | MIC [6] [µg/mL] | MIC [7] [µg/mL] | MIC [8] [µg/mL]
1 | C[C@H]1[C@H](NC(=O)/C(=N\OC(C)(C)C(=O)O)c2csc(N)n2)C(=O)N1S(=O)(=O)O [AZTREONAM] | 4 (≈ 9.19 µM) | 0.25 (≈ 0.574 µM) | 0.13 (≈ 0.299 µM) | 2 (≈ 4.59 µM) | 2 (≈ 4.59 µM) | 0.25 (≈ 0.574 µM) | 2 (≈ 4.59 µM) | 2 (≈ 4.59 µM)
2 | O=C(N[C@H](CO)[C@H](O)c1ccc([N+](=O)[O-])cc1)C(Cl)Cl [CHLORAMPHENICOL] | 64 (≈ 198 µM) | 4 (≈ 12.4 µM) | 4 (≈ 12.4 µM) | 32 (≈ 99 µM) | 32 (≈ 99 µM) | 8 (≈ 24.8 µM) | 32 (≈ 99 µM) | 32 (≈ 99 µM)
